The values that follow come from ChEMBL document CHEMBL4840311, “Discovery of novel nitrogenous heterocyclic-containing quinoxaline-1,4-di-N-oxides as potent activator of autophagy in M.tb-infected macrophages” (Eur J Med Chem, 2021).

In brackets after ≈: the same amount, converted by molar mass. Activity calls are given as the source filed them. The calls are words filed in the database; no cut-off is given here.

Data set [1] relates to Mycobacterium tuberculosis. As to the kind of experiment: Antimycobacterial activity against Mycobacterium tuberculosis H37Rv ATCC 27294 assessed as inhibition of bacterial growth measured after 5 days by microplate alamar blue assay. Type of data set: functional. To be noted: H37Rv ATCC 27294, 120 h, time 5 day.
Data set [2] is described as follows: Selectivity index, ratio of IC50 for African green monkey Vero cells measured after 72 hrs by MTT assay to MIC for antimycobacterial activity against Mycobacterium tuberculosis H37Rv ATCC 27294 assessed as inhibition of bacterial growth measured after 5 days by microplate alamar blue assay. Type of data set: toxicity. To be noted: read-out: Selectivity Index.

Data set [3] relates to Vero. Put plainly: Cytotoxicity against African green monkey Vero cells assessed as reduction in cell viability measured after 72 hrs by MTT assay. It is filed as cell-based. To be noted: Chlorocebus sabaeus.
Data set [4] concerns J774.A1. Put plainly: Induction of mitochondrial ROS generation in mouse J774.A1 cells at 2.5 ug/ml measured after 24 hrs by DCFH-DA staining based flow cytometry assay. To be noted: dose 2.5 µg/ml. Type of data set: functional, cell-based.
Data set [5] has as its system Mycobacterium tuberculosis. As to the kind of experiment: Antimycobacterial activity against Mycobacterium tuberculosis H37Rv infected in mouse J774.A1 cells assessed as log reduction of bacterial growth at 1X to 40X MIC measured after 1 day by visual colony counting analysis. Type of data set: functional.
In data set [6] the test system is J774.A1. As to the kind of experiment: Induction of mitochondrial ROS generation in mouse J774.A1 cells infected with Mycobacterium tuberculosis H37Rv at 2.5 ug/ml measured after 24 hrs by Mito-SOX staining based flow cytometry assay. Type of data set: functional, cell-based. To be noted: dose 2.5 µg/ml.
The subject of data set [7] is J774.A1. As to the kind of experiment: Activation of autophagy in mouse J774.A1 cells infected with Mycobacterium tuberculosis H37Rv assessed as increase in LC3 accumulation at 2.5 to 5 ug/ml measured after 24 hrs by immunofluorescence staining analysis. To be noted: dose 2.5-5 µg/ml. It is filed as functional, cell-based.
Data set [8] in a line: Cmax in Wistar rat at 2.5 mg/kg, im measured for 48 hrs by HPLC method. It is filed as ADME, organism-based. The arrangement: route intramuscular, dose 2.5 mg/kg, time 48 hrs. To be noted: in vivo.
The subject of data set [9] is Cell membrane. As to the kind of experiment: Disruption of membrane integrity Mycobacterium tuberculosis H37Rv assessed as disturbance in energy homeostasis by measuring reduction in ATP content at 0.125 to 2.5 ug/ml measured after 24 hrs by luciferase based bioluminescence assay. To be noted: dose 0.125-2.5 µg/ml.
For data set [10], the system named is Mycobacterium tuberculosis. As to the kind of experiment: Antimycobacterial activity against Mycobacterium tuberculosis H37Rv infected in mouse J774.A1 cells assessed as log reduction of bacterial growth at 20X MIC measured after 4 days by visual colony counting analysis. It is filed as functional. To be noted: time 4 day.
Data set [11] relates to J774.A1. Put plainly: Induction of cytoplasmic ROS generation in mouse J774.A1 cells at 2.5 ug/ml measured after 24 hrs by DCFH-DA staining based flow cytometry assay. Type of data set: functional, cell-based. To be noted: dose 2.5 µg/ml.
Data set [12] has as its system J774.A1. As to the kind of experiment: Activation of autophagy in mouse J774.A1 cells infected with Mycobacterium tuberculosis H37Rv assessed as increase of LC3-II expression by measuring ratio of LC3-II to LC3-I at 2.5 ug/ml measured after 24 hrs by Western blot assay (reference value: 1.18). To be noted: dose 2.5 µg/ml. Type of data set: functional.
The test system of data set [13] is J774.A1. Put plainly: Activation of autophagy in mouse J774.A1 cells infected with Mycobacterium tuberculosis H37Rv assessed as increase of LC3-II expression by measuring ratio of LC3-II to LC3-I at 1 ug/ml measured after 24 hrs by Western blot assay (reference value: 1.18). It is filed as functional. To be noted: dose 1 µg/ml.
Data set [14] concerns J774.A1. As to the kind of experiment: Cytotoxicity against mouse J774.A1 cells assessed as reduction in cell viability measured after 72 hrs by MTT assay. Type of data set: cell-based. To be noted: J774.A1, 72 h.
Data set [15] can be described thus: MRT (0 to t) in Wistar rat at 2.5 mg/kg, im measured for 48 hrs by HPLC method. It is filed as ADME, organism-based. To be noted: in vivo.
Data set [16] concerns J774.A1. Put plainly: Induction of cytoplasmic ROS generation in mouse J774.A1 cells infected with Mycobacterium tuberculosis H37Rv at 2.5 ug/ml measured after 24 hrs by DCFH-DA staining based flow cytometry assay. It is filed as functional, cell-based. To be noted: dose 2.5 µg/ml.
The subject of data set [17] is J774.A1. As to the kind of experiment: Activation of autophagy in mouse J774.A1 cells infected with Mycobacterium tuberculosis H37Rv assessed as increase of LC3-II expression by measuring ratio of LC3-II to LC3-I at 5 ug/ml measured after 24 hrs by Western blot assay (reference value: 1.18). To be noted: dose 5 µg/ml. Type of data set: functional.
The nature of data set [18]: Tmax in Wistar rat at 2.5 mg/kg, im measured for 48 hrs by HPLC method. To be noted: in vivo. Type of data set: ADME, organism-based.
Data set [19] is described as follows: MRT (0 to infinity) in Wistar rat at 2.5 mg/kg, im by HPLC method. To be noted: in vivo. It is filed as ADME, organism-based.
Data set [20] has as its system Cell membrane. Put plainly: Disruption on membrane integrity in Mycobacterium tuberculosis assessed as red fluorescence at 2X to 4X MIC measured after 24 hrs by SYTO 9/PI staining based inverted flourescence microscopy method.
In data set [21] the test system is Mycobacterium tuberculosis. Put plainly: Antimycobacterial activity against Mycobacterium tuberculosis H37Rv infected in mouse J774.A1 cells assessed as log reduction of bacterial growth at 1X MIC measured after 4 days by visual colony counting analysis. It is filed as functional. To be noted: time 4 day.
Data set [22] can be described thus: AUC (0 to t) in Wistar rat at 2.5 mg/kg, im measured for 48 hrs by HPLC method. Type of data set: ADME, organism-based. Also on record: dose 2.5 mg/kg, time 48 hrs. To be noted: in vivo.
In data set [23] the test system is Mycobacterium tuberculosis. As to the kind of experiment: Antimycobacterial activity against Mycobacterium tuberculosis H37Rv infected in mouse J774.A1 cells assessed as log reduction of bacterial growth at 10X MIC measured after 4 days by visual colony counting analysis. It is filed as functional. To be noted: time 4 day.
The subject of data set [24] is J774.A1. As to the kind of experiment: Activation of autophagy in mouse J774.A1 cells assessed as LC3 accumulation measured after 24 hrs by immunofluorescence staining analysis. It is filed as functional, cell-based.
Data set [25] in a line: Toxicity in Wistar rat assessed as abnormal behaviour at 2.5 mg/kg, im measured for 48 hrs. Type of data set: organism-based. To be noted: in vivo.
Data set [26] concerns Mycobacterium tuberculosis. As to the kind of experiment: Antimycobacterial activity against Mycobacterium tuberculosis H37Rv infected in mouse J774.A1 cells assessed as log reduction of bacterial growth at 40X MIC measured after 4 days by visual colony counting analysis. Type of data set: functional. To be noted: time 4 day.
Data set [27] is described as follows: Half life in Wistar rat at 2.5 mg/kg, im measured for 48 hrs by HPLC method. Type of data set: ADME, organism-based. To be noted: in vivo.
The nature of data set [28]: AUC (0 to infinity) in Wistar rat at 2.5 mg/kg, im by HPLC method. To be noted: in vivo. It is filed as ADME, organism-based. Also on record: time infinity, route intramuscular, dose 2.5 mg/kg.
Data set [29] concerns J774.A1. As to the kind of experiment: Activation of autophagy in mouse J774.A1 cells assessed as LC3-II expression by measuring ratio of LC3-II to LC3-I measured after 24 hrs by Western blot assay (reference value: 1.04). It is filed as functional.

On to `CCCC(=O)c1c(C)[n+]([O-])c2cc(F)c(F)cc2[n+]1[O-]`, for which, in data set [1], the minimum inhibitory concentration (MIC) stood at 8 µg/mL (≈ 28.3 µM).
Take `CC(=O)c1c(C(F)(F)F)[n+]([O-])c2cc(-n3ccnc3)c(F)cc2[n+]1[O-]`: the selectivity ratio at 72 hrs in [2] was 66.2. Also, the minimum inhibitory concentration (MIC) in data set [1] was found to be 0.25 µg/mL (≈ 0.702 µM). For the same compound, the IC50 in [3] is 46.5 µM.
With `CCOC(=O)c1c(C)[n+]([O-])c2cc(N3CCCCC3)c(F)cc2[n+]1[O-]`, the MIC in data set [1] is 32 µg/mL (≈ 91.6 µM).
Still for that read-out and setting: under `Cc1c(C(=O)OC(C)C)[n+]([O-])c2cc(-n3ccnc3)c(-n3ccnc3)cc2[n+]1[O-]` stands 8 µg/mL (≈ 20.3 µM); under `CC(=O)c1c(C)[n+]([O-])c2cc(N3CCNCC3)c(F)cc2[n+]1[O-]`, 4 µg/mL (≈ 12.5 µM).
As for `CC(=O)c1c(C)[n+]([O-])c2cc(F)c(F)cc2[n+]1[O-]`, in data set [2], the selectivity ratio at 72 hrs is 2.8. Moreover, the MIC in data set [1] was 2 µg/mL (≈ 7.87 µM). The IC50 in data set [3] came to 22.4 µM.
For the compound `CCCC(=O)c1c(C)[n+]([O-])c2cc(N3CCNCC3)c(F)cc2[n+]1[O-]`, the MIC in [1] was 16 µg/mL (≈ 45.9 µM).
On the same count and under the same terms, the figure for `Cc1c(C(=O)CC(C)C)[n+]([O-])c2ccccc2[n+]1[O-]` is 64 µg/mL (≈ 246 µM).
For `Cc1c(C(=O)OCc2ccccc2)[n+]([O-])c2cc(F)c(F)cc2[n+]1[O-]`, the selectivity ratio at 72 hrs in data set [2] worked out at 38.3. Also, the MIC in data set [1] is 0.5 µg/mL (≈ 1.44 µM). Besides, in data set [3], the IC50 stood at 55.3 µM.
`Cc1c(C(=O)OCc2ccccc2)[n+]([O-])c2cc(F)c(-n3cncn3)cc2[n+]1[O-]`: the outcome in [4], in [11] and in data set [24] was inactive. In addition, the “log(activity)” value in data set [5] turned out to be 0.1; in data set [10], 2.12; in data set [21] it was 0.74; in data set [23] it was 1.56; in data set [26], 2.73. For the same compound, the outcome in data set [6], in [7], in data set [9], in data set [16] and in [20] was Active. The selectivity ratio at 72 hrs in data set [2] worked out at 328. The compound also yielded a Cmax in data set [8] of 1560 ng/mL. In addition, the Ratio amounted to 1.92 in data set [12], 1.74 in [13], 2.59 in data set [17] and 0.78 in [29]. The figures for the IC50 in data set [14] and in data set [3] were 77.7 µM and 123 µM, respectively. Besides, the MIC in data set [1] stood at 0.125 µg/mL (≈ 0.316 µM). Moreover, in data set [15], the mean residence time MRT last at 48 h stood at 6.04 h. The Tmax in data set [18] worked out at 2 h. Besides, the MRT inf in [19] amounted to 7.38 h. Besides, the AUC(0-t) at 48 h in [22] was 10100 ng·h/mL. Moreover, the Activity result in data set [25] is reported as “Non-Toxic”. Moreover, the half-life in data set [27] is 5.94 h. In data set [28], the AUC(0-inf) turned out to be 10600 ng·h/mL.
For the compound `CCOC(=O)c1c(C)[n+]([O-])c2cc(N3CCCC3)c(F)cc2[n+]1[O-]`, the MIC in data set [1] was found to be 64 µg/mL (≈ 191 µM).
Turning to `CCOC(=O)c1c(C)[n+]([O-])c2cc(F)c(F)cc2[n+]1[O-]`, in [2], the selectivity ratio at 72 hrs was 8.7. In data set [1], the minimal inhibitory concentration (MIC) is 1 µg/mL (≈ 3.52 µM). In addition, the IC50 in [3] came to 30.6 µM.
Regarding `CC(=O)c1c(C)[n+]([O-])c2ccccc2[n+]1[O-]` [MEQUINDOX], the MIC in data set [1] turned out to be 8 µg/mL (≈ 36.7 µM).
On to `CCOC(=O)c1c(C(F)(F)F)[n+]([O-])c2cc(-n3ccnc3)c(F)cc2[n+]1[O-]`, for which the selectivity ratio at 72 hrs in data set [2] was 30. Also, the minimum inhibitory concentration (MIC) in [1] was 0.25 µg/mL (≈ 0.647 µM). Moreover, the IC50 in data set [3] stood at 19.4 µM.
In the case of `CCOC(=O)c1c(C(F)(F)F)[n+]([O-])c2cc(-n3cncn3)c(F)cc2[n+]1[O-]`, in [2], the selectivity ratio at 72 hrs was 54.8. The MIC in data set [1] turned out to be 0.25 µg/mL (≈ 0.646 µM). Further, the IC50 in data set [3] was found to be 35.4 µM.
With `CCOC(=O)c1c(C)[n+]([O-])c2cc(-n3cncn3)c(F)cc2[n+]1[O-]`, the selectivity ratio at 72 hrs in data set [2] is 412. Further, the concentration for half-maximal inhibition (IC50) in [14] is 77.7 µM; in [3], 155 µM. For the same compound, the minimum inhibitory concentration (MIC) in data set [1] stood at 0.125 µg/mL (≈ 0.375 µM).
